Assay [1] deals with T1, CA-IX (Homo sapiens, UniProt Q16790).
T1 construct: His tag (C); purchased R&D Systems Inc. 2188-CA; host or cells: mouse myeloma cell line NS0
Nature of the assay: CA-IX combinatorial library screening, competitive fluorescence-based assay with dansylamide (DNSA). The format is binding. To be noted: Table 1, Libraries 1-3; sample concentrations 100 nM and 1000 nM, DNSA 200 μM; screening at 1 μM. In a few lines:
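Recombinant His-tagged CA-IX (NS0-expressed) in phosphate buffer pH 7.4 with test compound at 100 nM or 1000 nM; competitive displacement started with 200 μM dansylamide (stock concentration). After 1 h at 25 °C, fluorescence read at 460 nm (excitation 290 nm).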

Assay [2] addresses T1, CA-IX. The assay is described as follows: Binding affinity (Kd) determination for CA-IX inhibitors, DNSA fluorescence competition assay, Scatchard plots. To be noted: Table 3.

The source of these data is patent US7829063B2, “Development of molecular imaging probes for carbonic anhydrase-IX using click chemistry” (Siemens Medical Solutions USA, Inc., priority 2007, dated 2010).

Broadly, the Kd is a measure of binding affinity in units of concentration.

On to `COC(=O)[C@H](CSCc1ccccc1)NC(=O)Cn1cc(COc2ccc3nc(S(N)(=O)=O)sc3c2)nn1` [DHK113], for which the “In Vitro Binding Assay (Library Screening)” value (“In Vitro Binding Assay” for short) at CA-IX [1] was “√ √”. The Kd at CA-IX [2] is 10 nM.

Take `CC(C)C(C(=O)NCc1cc(F)ccc1F)n1cc(COc2ccc3nc(S(N)(=O)=O)sc3c2)nn1` (centres unmarked) [DHK117]: the “In Vitro Binding Assay” value on CA-IX [1] was “√”. Binding at CA-IX [2] was put at a Kd of 14.1 nM.

With `NS(=O)(=O)c1nc2ccc(OCc3cn(Cc4cccc(Br)c4)nn3)cc2s1` [DHK121], at CA-IX [1], the “In Vitro Binding Assay” value was “√”. This compound displayed a Kd on CA-IX [2] of 25 nM.

For the compound `Cc1ccc(CNC(=O)[C@H](C(C)C)n2cc(COc3ccc4nc(S(N)(=O)=O)sc4c3)nn2)cc1F` [DHK123], on CA-IX [1], the “In Vitro Binding Assay” value is on record as “√”. This compound returned a Kd at CA-IX [2] of 12.5 nM.

Take `CCOC(=O)c1ccc(Cn2cc(COc3ccc4nc(S(N)(=O)=O)sc4c3)nn2)cc1` [DHK125]: on CA-IX [1], the “In Vitro Binding Assay” value is “√”. Further, binding on CA-IX [2] was characterised by a dissociation constant (Kd) of 16.7 nM.

On to `CC(C)[C@@H](C(=O)NCc1ccco1)n1cc(COc2ccc3nc(S(N)(=O)=O)sc3c2)nn1` [DHK127], for which the “In Vitro Binding Assay” value on CA-IX [1] is on record as “√”. At CA-IX [2], this compound gave a Kd of 25 nM.

`NS(=O)(=O)c1nc2ccc(OCc3cn(Cn4nnc5ccccc54)nn3)cc2s1` [DHK128]: at CA-IX [1], the “In Vitro Binding Assay” value was “√”. For the same compound, on CA-IX [2], the affinity, expressed as Kd, was 12.5 nM.
